Structures are written as SMILES. Where two headings read alike, the source gives them in different places.

For 20 molecules, IC50 results are on record in patent publication US9127044B2, “Cyclic depsipeptides” (NOVARTIS AG, priority 2007, dated 2015).

Assay [1] has as its target T1, Human neutrophil elastase (Homo sapiens, UniProt P08246).
T1 construct: purchased Elastin Products Company, Inc. (EPC, Owensville, USA) SE563
T1 sequence (P08246 30-267): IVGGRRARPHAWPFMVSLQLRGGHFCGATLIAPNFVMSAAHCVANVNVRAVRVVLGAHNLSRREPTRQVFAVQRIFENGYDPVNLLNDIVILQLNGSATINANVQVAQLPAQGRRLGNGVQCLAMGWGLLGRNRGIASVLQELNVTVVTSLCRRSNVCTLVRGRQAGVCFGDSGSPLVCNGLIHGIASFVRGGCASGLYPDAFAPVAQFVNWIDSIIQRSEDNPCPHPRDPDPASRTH
Put plainly: HNE inhibitory activity in vitro (fluorescence-quenched substrate). The format is biochemical. On the procedure: Human neutrophil elastase (cat. no. SE563) is purchased from Elastin Products Company, Inc. (EPC, Owensville, USA). The dry powder (purity >95% stated by the supplier) was dissolved in 20 mM sodium acetate buffer, pH 5.0, 50% (v/v) glycerol, and frozen at −80° C. in aliquots.
The fluorescence-quenched substrate (DABCYL-Ser-Glu-Val^Asn-Leu-Asp-Ala-Glu-Phe-EDANS, where ^ indicates the scissile bond, identified by MS analysis) was purchased from Bachem AG (Bubendorf, Switzerland), and kept as a 5 mM stock solution in DMSO at −20° C. All other chemicals were of analytical grade.
Enzymatic reactions were conducted in 100 mM Tris/HCl buffer at pH 7.5, containing 500 mM NaCl, and 0.05% (w/v) CHAPS.
All protein and peptide containing solutions are handled in siliconized tubes (Life Systems Design, Merenschwand, Switzerland).
The compound solutions as well as the enzyme and the substrate solutions are transferred to the 384-well plates (black Cliniplate; cat. no. 95040020 Labsystems Oy, Finland) by means of a CyBi-Well 96-channel pipettor (CyBio AG, Jena, Germany).
(§1) For fluorescence intensity (FI) measurements an Ultra Evolution reader (TECAN, Maennedorf, Switzerland) is used. The instrument is equipped with a combination of a 350 nm (20 nm bandwidth) and a 500 nm (25 nm bandwidth) bandpass filter for fluorescence excitation and emission acquisition, respectively. To increase the signal:background ratio, an appropriate dichroic mirror is employed. The optical filters and the dichroic mirror are purchased from TECAN. The fluorophores in each well are excited by three flashes per measurement.

A further assay deals with human kallikrein 7 (Homo sapiens, UniProt P49862). Put plainly: Kallikrein-7 inhibitory activity in vitro (fluorescence-quenched substrate). The class given is biochemical. The method, then: (§2) IC50 for human kallikrein can be measured using the fluorescence-quenched substrate Ac-Glu-Asp(EDANS)-Lys-Pro-Ale-Leu-Phe^Arg-Leu-Gly-Lys(DABCYL)-Glu-NH2 (where ^ indicates the scissile bond, identified by MS analysis) which can be purchased from Biosyntan (Berlin, Germany). Enzymatic reactions are conducted in 50 mM sodium citrate buffer at pH 5.6 containing 150 mM NaCl and 0.05% (w/v) CHAPS. For the determination of IC50 values the assay is performed at room temperature in 384-well plates. All final assay volumes are 30 μl. Test compounds are dissolved in 90% (v/v) DMSO/water and diluted in water (containing 0.05% (w/v) CHAPS) to 3-times the desired assay concentration. The 11 final compound concentrations are: 0.3 nM, 1 nM, 3 nM, 10 nM, 30 nM, 100 nM, 300 nM, 1 μM, 3 μM, 10 μM and 30 μM. For each assay, 10 μl water/CHAPS (±test compound) are added per well, followed by 10 μl protease solution (diluted with 1.5× assay buffer). The protease concentration in final assay solution is 0.2 nM (according to the enzyme concentrations determined by the Bradford method). After 1 hour of incubation at room temperature, the reaction is started by addition of 10 μl substrate solution (substrate dissolved in 1.5× assay buffer, final concentration is 2 μM). […] The IC50 value is calculated from the plot of percentage of inhibition vs. inhibitor concentration using non-linear regression analysis software (XLfit, Vers. 4.0; ID Business Solution Ltd., Guildford, Surrey, UK).
The fluorescence-quenched substrate Ac-Glu-Asp(EDANS)-Lys-Pro-Ale-Leu-Phe^Arg-Leu-Gly-Lys(DABCYL)-Glu-NH2 (where ^ indicates the scissile bond, identified by MS analysis) is purchased from Biosyntan (Berlin, Germany) and kept as a 5 mM stock solution in DMSO at −20° C. All other chemicals are of analytical grade.
Enzymatic reactions are conducted in 50 mM sodium citrate buffer at pH 5.6 containing 150 mM NaCl and 0.05% (w/v) CHAPS.
All protein and peptide containing solutions are handled in siliconized tubes (Life Systems Design, Merenschwand, Switzerland). The compound solutions as well as the enzyme and the substrate solutions are transferred to the 384-well plates (black Cliniplate; cat. no. 95040020 Labsystems Oy, Finland) by means of a CyBi-Well 96-channel pipettor (CyBio AG, Jena, Germany).
as §1
as §2, with “For” for “IC50 for human kallikrein can be measured using the fluorescence-quenched substrate Ac-Glu-Asp(EDANS)-Lys-Pro-Ale-Leu-Phe^Arg-Leu-Gly-Lys(DABCYL)-Glu-NH2 (where ^ indicates the scissile bond, identified by MS analysis) which can be purchased from Biosyntan (Berlin, Germany). Enzymatic reactions are conducted in 50 mM sodium citrate buffer at pH 5.6 containing 150 mM NaCl and 0.05% (w/v) CHAPS. For”, “volumes were” for “volumes are”, “concentration was” for “concentration is”

Setting [2] is: Table 11, read-out: human neutrophile elastase IC 50.
Where [3] appears, read: Table 11, read-out: hKallikrein7 IC 50.

Chain of human kallikrein 7 (P49862 30-253): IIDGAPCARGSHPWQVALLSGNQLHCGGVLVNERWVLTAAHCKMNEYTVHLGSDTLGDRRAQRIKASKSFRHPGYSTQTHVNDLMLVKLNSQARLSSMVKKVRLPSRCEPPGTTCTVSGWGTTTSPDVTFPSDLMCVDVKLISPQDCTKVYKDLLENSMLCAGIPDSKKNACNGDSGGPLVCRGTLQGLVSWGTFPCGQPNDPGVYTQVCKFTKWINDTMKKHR

In the case of `CCC(C)C1NC(=O)C(Cc2ccc(O)cc2)N(C)C(=O)C(C(C)CC)N2CCCC(NC(=O)C(CC(C)C)NC(=O)C(NC(=O)C(CCC(N)=O)NC(=O)C(C)C)C(C)OC1=O)C2=O` (centres unmarked) [example 4], the IC50 in assay [1] (setting [2]) came to 55 nM; at human kallikrein 7 (setting [3]), 6 nM.

For the molecule `CCCOC1CCC2NC(=O)C(CC(C)C)NC(=O)C(NC(=O)C(CCC(N)=O)NC(=O)C(C)C)C(C)OC(=O)C(C(C)CC)NC(=O)C(Cc3ccc(O)cc3)N(C)C(=O)C(C(C)CC)N1C2=O` (centres unmarked) [example 5], the IC50 in assay [1] was 5 nM; on human kallikrein 7 (IC50 for human kallikrein 7), 9 nM; at human kallikrein 7 (hKallikrein7 IC 50, Table 11) it was 8 nM.

`CCCCCCCCOC1CCC2NC(=O)C(CC(C)C)NC(=O)C(NC(=O)C(CCC(N)=O)NC(=O)C(C)C)C(C)OC(=O)C(C(C)CC)NC(=O)C(Cc3ccc(O)cc3)N(C)C(=O)C(C(C)CC)N1C2=O` (centres unmarked) [example 6]: the IC50 stood at 55 nM in assay [1] and 95 nM at human kallikrein 7 (hKallikrein7 IC 50, Table 11).

As for `CCC(C)C1NC(=O)C(Cc2ccc(O)cc2)N(C)C(=O)C(C(C)CC)N2C(=O)C(CCC2OCC(F)(F)F)NC(=O)C(CC(C)C)NC(=O)C(NC(=O)C(CCC(N)=O)NC(=O)C(C)C)C(C)OC1=O` (centres unmarked) [example 7], the IC50 stood at 6 nM in assay [1] and 50 nM at human kallikrein 7 (hKallikrein7 IC 50, Table 11).

As to `CCCCOC1CCC2NC(=O)C(CC(C)C)NC(=O)C(NC(=O)C(CCC(N)=O)NC(=O)C(C)C)C(C)OC(=O)C(C(C)CC)NC(=O)C(Cc3ccc(O)cc3)N(C)C(=O)C(C(C)CC)N1C2=O` (centres unmarked) [example 11], the IC50 was determined as 12 nM in assay [1] and 6 nM on human kallikrein 7 (hKallikrein7 IC 50, Table 11).

For the molecule `CCC(C)C1NC(=O)C(Cc2ccc(O)cc2)N(C)C(=O)C(C(C)CC)N2C(=O)C(CCC2OCC(C)C)NC(=O)C(CC(C)C)NC(=O)C(NC(=O)C(CCC(N)=O)NC(=O)C(C)C)C(C)OC1=O` (centres unmarked) [example 12], the IC50 worked out at 6 nM in assay [1] and 8.5 nM on human kallikrein 7 (hKallikrein7 IC 50, Table 11).

For the molecule `CCC(C)C1NC(=O)C(Cc2ccc(O)cc2)N(C)C(=O)C(C(C)CC)N2C(=O)C(CCC2OCCOC)NC(=O)C(CC(C)C)NC(=O)C(NC(=O)C(CCC(N)=O)NC(=O)C(C)C)C(C)OC1=O` (centres unmarked) [example 13], the IC50 in assay [1] stood at 4 nM; on human kallikrein 7 (hKallikrein7 IC 50, Table 11), 6 nM.

Turning to `CCC(C)C1NC(=O)C(Cc2ccc(O)cc2)N(C)C(=O)C(C(C)CC)N2C(=O)C(CCC2OCCO)NC(=O)C(CC(C)C)NC(=O)C(NC(=O)C(CCC(N)=O)NC(=O)C(C)C)C(C)OC1=O` (centres unmarked) [example 14], the IC50 in assay [1] amounted to 5 nM; at human kallikrein 7 (hKallikrein7 IC 50, Table 11), 10 nM.

Regarding `CCC(C)C1NC(=O)C(Cc2ccc(O)cc2)N(C)C(=O)C(C(C)CC)N2C(=O)C(CCC2OCCOCCO)NC(=O)C(CC(C)C)NC(=O)C(NC(=O)C(CCC(N)=O)NC(=O)C(C)C)C(C)OC1=O` (centres unmarked) [example 15], the IC50 is 5 nM in assay [1] and 15 nM at human kallikrein 7 (hKallikrein7 IC 50, Table 11).

In the case of `CCC(C)C1NC(=O)C(Cc2ccc(O)cc2)N(C)C(=O)C(C(C)CC)N2C(=O)C(CCC2OCCOCCOC)NC(=O)C(CC(C)C)NC(=O)C(NC(=O)C(CCC(N)=O)NC(=O)C(C)C)C(C)OC1=O` (centres unmarked) [example 16], the IC50 was found to be 5 nM in assay [1] and 15 nM on human kallikrein 7 (hKallikrein7 IC 50, Table 11).

On to `CCC(C)C1NC(=O)C(Cc2ccc(O)cc2)N(C)C(=O)C(C(C)CC)N2C(=O)C(CCC2OC)NC(=O)C(CC(C)C)NC(=O)C(NC(=O)C(CCC(N)=O)NC(=O)C(C)C)C(C)OC1=O` (centres unmarked) [example 17], for which the IC50 in assay [1] turned out to be 7.5 nM; at human kallikrein 7 (hKallikrein7 IC 50, Table 11), 3 nM.

In the case of `C#CCOC1CCC2NC(=O)C(CC(C)C)NC(=O)C(NC(=O)C(CCC(N)=O)NC(=O)C(C)C)C(C)OC(=O)C(C(C)CC)NC(=O)C(Cc3ccc(O)cc3)N(C)C(=O)C(C(C)CC)N1C2=O` (centres unmarked) [example 18], the IC50 was found to be 2.5 nM in assay [1] and 5 nM on human kallikrein 7 (hKallikrein7 IC 50, Table 11).

Take `CCC(C)C1NC(=O)C(Cc2ccc(O)cc2)N(C)C(=O)C(C(C)CC)N2C(=O)C(CCC2OC)NC(=O)C(CC(C)C)NC(=O)C(NC(=O)C(CCC(=O)OC)NC(=O)C(C)C)C(C)OC1=O` (centres unmarked) [example 20]: the IC50 in assay [1] was 8 nM; at human kallikrein 7 (hKallikrein7 IC 50, Table 11) it was 1.5 nM.

On to `CCC(C)C1NC(=O)C(Cc2ccc(O)cc2)N(C)C(=O)C(C(C)CC)N2C(=O)C(CCC2O)NC(=O)C(CC(C)C)NC(=O)C(NC(=O)C(CCC#N)NC(=O)C(C)C)C(C)OC1=O` (centres unmarked) [example 21], for which the IC50 in assay [1] (setting [2]) amounted to 9 nM; at human kallikrein 7 (setting [3]), 2.5 nM.

As to `CCC(C)C1NC(=O)C(Cc2ccc(O)cc2)N(C)C(=O)C(C(C)CC)N2CCCC(NC(=O)C(CC(C)C)NC(=O)C(NC(=O)C(CCC#N)NC(=O)C(C)C)C(C)OC1=O)C2=O` (centres unmarked) [example 22], the IC50 in assay [1] (setting [2]) was found to be 40 nM; at human kallikrein 7 (setting [3]), 6 nM.

For `CCCOC1CCC2NC(=O)C(CC(C)C)NC(=O)C(NC(=O)C(CCC#N)NC(=O)C(C)C)C(C)OC(=O)C(C(C)CC)NC(=O)C(Cc3ccc(O)cc3)N(C)C(=O)C(C(C)CC)N1C2=O` (centres unmarked) [example 24], the IC50 in assay [1] (setting [2]) amounted to 4 nM; at human kallikrein 7 (setting [3]), 7 nM.

In the case of `CCCCCCOC(=O)Oc1ccc(CC2C(=O)NC(C(C)CC)C(=O)OC(C)C(NC(=O)C(CCC(N)=O)NC(=O)C(C)C)C(=O)NC(CC(C)C)C(=O)NC3CCC(O)N(C3=O)C(C(C)CC)C(=O)N2C)cc1` (centres unmarked) [example 26], the IC50 was found to be 4.5 nM in assay [1] (setting [2]) and 0.85 nM on human kallikrein 7 (setting [3]).

As for `CCC(C)[C@@H]1NC(=O)[C@H](Cc2ccc(OC(=O)OCC(C)C)cc2)N(C)C(=O)[C@H](C(C)CC)N2CCCC(NC(=O)[C@H](CC(C)C)NC(=O)[C@@H](NC(=O)[C@H](CCC(N)=O)NC(=O)C(C)C)[C@@H](C)OC1=O)C2=O` (some centres unmarked) [example 27], the IC50 in assay [1] was found to be 20 nM; at human kallikrein 7 (hKallikrein7 IC 50, Table 11), 3 nM.

Turning to `CCC(C)C1NC(=O)C(Cc2ccc(OC(=O)OCCOC)cc2)N(C)C(=O)C(C(C)CC)N2CCCC(NC(=O)C(CC(C)C)NC(=O)C(NC(=O)C(CCC(N)=O)NC(=O)C(C)C)C(C)OC1=O)C2=O` (centres unmarked) [example 28], the IC50 was determined as 30 nM in assay [1] (setting [2]) and 2.5 nM on human kallikrein 7 (setting [3]).

For the molecule `CCOC(=O)Oc1ccc(C[C@H]2C(=O)N[C@@H](C(C)CC)C(=O)O[C@H](C)[C@H](NC(=O)[C@H](CCC(N)=O)NC(=O)C(C)C)C(=O)N[C@@H](CC(C)C)C(=O)NC3CCCN(C3=O)[C@@H](C(C)CC)C(=O)N2C)cc1` (some centres unmarked) [example 29], the IC50 was 25 nM in assay [1] (setting [2]) and 3 nM on human kallikrein 7 (setting [3]).
